Results reported in the CombiSolv-Exp solvation set (Vermeire and Green 2021).

Experiment: solvent given as SMILES
[1] = in CCCCCCCCC=CCCCCCCCC(=O)OCC(COC(=O)CCCCCCCC=CCCCCCCCC)OC(=O)CCCCCCCC=CCCCCCCCC

O=C(O)c1cccc([N+](=O)[O-])c1
solvation free energy, 298 K (in C1CCOC1): -12.5 kcal/mol
solvation free energy, 298 K (in C1COCCO1): -12.2 kcal/mol
solvation free energy, 298 K (in CC(C)(C)O): -12.4 kcal/mol
solvation free energy, 298 K (in CC(C)CCO): -11.8 kcal/mol
solvation free energy, 298 K (in CC(C)CO): -12.1 kcal/mol
solvation free energy, 298 K (in CC(C)O): -12.4 kcal/mol
solvation free energy, 298 K (in CCC(C)O): -12.3 kcal/mol
solvation free energy, 298 K (in CCCC(C)O): -12.2 kcal/mol
solvation free energy, 298 K (in CCCCCCCCCCO): -11.8 kcal/mol
solvation free energy, 298 K (in CCCCCCCCO): -11.9 kcal/mol
solvation free energy, 298 K (in CCCCCCCO): -11.9 kcal/mol
solvation free energy, 298 K (in CCCCCCO): -12 kcal/mol
solvation free energy, 298 K (in CCCCCO): -12.1 kcal/mol
solvation free energy, 298 K (in CCCCO): -12.2 kcal/mol
solvation free energy, 298 K (in CCCCOC(C)=O): -11.6 kcal/mol
solvation free energy, 298 K (in CCCO): -12.3 kcal/mol
solvation free energy, 298 K (in CCO): -12.5 kcal/mol
solvation free energy, 298 K (in CCOC(C)=O): -11.9 kcal/mol
solvation free energy, 298 K (in CCOCC): -12.1 kcal/mol
solvation free energy, 298 K (in CO): -12.7 kcal/mol
solvation free energy, 298 K (in COC(C)=O): -12.1 kcal/mol
solvation free energy, 298 K (in O): -9.45 kcal/mol

CCC=CCCC=O
solvation free energy, 298 K (in O): -3.19 kcal/mol

COC(C)OC
solvation free energy, 298 K (in O): -3.26 kcal/mol

Cc1ccccc1C=O
solvation free energy, 298 K (in O): -3.93 kcal/mol

C=CCCC(C)C
solvation free energy, 298 K (in C=CCCCCCCCCCCCCCC): -3.87 kcal/mol
solvation free energy, 298 K (in O): 1.77 kcal/mol

OCCCc1ccccc1
solvation free energy, 298 K (in O): -6.92 kcal/mol

O=C(O)CCC(=O)O
solvation free energy, 298 K (in CC(C)O): -12.3 kcal/mol
solvation free energy, 298 K (in CCCO): -12.2 kcal/mol
solvation free energy, 298 K (in CCO): -12.6 kcal/mol
solvation free energy, 298 K (in O): -12.6 kcal/mol
solvation free energy, 298 K (in O=C1CCCCC1): -11.7 kcal/mol

O=C(O)c1cc(O)c(O)c(O)c1
solvation free energy, 298 K (in CCO): -19.8 kcal/mol

Cl
solvation free energy, 298 K (in C=CCCCCCCCCCCCCCC): -0.82 kcal/mol
solvation free energy, 298 K (in ClC(Cl)(Cl)Cl): -0.86 kcal/mol

CN1C(=O)CN=C(c2ccccc2)c2cc(Cl)ccc21
solvation free energy, 298 K (in O): -12.6 kcal/mol

C=C(C)CC(C)(C)C
solvation free energy, 298 K (in CCC(C)=O): -4.34 kcal/mol
solvation free energy, 298 K (in O): 2.01 kcal/mol
solvation free energy, 298 K (in OCCO): -1.42 kcal/mol
solvation free energy, 298 K (in OCCOCCO): -2.19 kcal/mol
solvation free energy, 298 K (in OCCOCCOCCO): -2.29 kcal/mol

Clc1cccc(Cl)c1Cl
solvation free energy, 298 K (in CCCCCC): -6.92 kcal/mol
solvation free energy, 298 K [1]: -7.12 kcal/mol
solvation free energy, 298 K (in CCCCCCCCO): -7.08 kcal/mol
solvation free energy, 298 K (in O): -1.24 kcal/mol

CS(=O)(=O)Cl
solvation free energy, 298 K (in O): -4.87 kcal/mol

C=C(C)C
solvation free energy, 298 K (in CC(C)(C)O): -2.03 kcal/mol
solvation free energy, 298 K (in CC(C)=O): -2.37 kcal/mol
solvation free energy, 298 K (in CC(C)CCO): -1.99 kcal/mol
solvation free energy, 298 K (in CC(C)CO): -1.98 kcal/mol
solvation free energy, 298 K (in CC(C)O): -1.98 kcal/mol
solvation free energy, 298 K (in CCC(C)(C)O): -2.09 kcal/mol
solvation free energy, 298 K (in CCC(C)CO): -1.98 kcal/mol
solvation free energy, 298 K (in CCC(C)O): -1.99 kcal/mol
solvation free energy, 298 K (in CCC(O)CC): -2.01 kcal/mol
solvation free energy, 298 K (in CCCC(C)O): -2.01 kcal/mol
solvation free energy, 298 K (in CCCCC): -2.49 kcal/mol
solvation free energy, 298 K (in CCCCCC): -2.43 kcal/mol
solvation free energy, 298 K (in CCCCCCC): -2.44 kcal/mol
solvation free energy, 298 K (in CCCCCCCC): -2.41 kcal/mol
solvation free energy, 298 K (in CCCCCCCCC): -2.39 kcal/mol
solvation free energy, 298 K (in CCCCCCCCCC): -2.36 kcal/mol
solvation free energy, 298 K (in CCCCCO): -2.01 kcal/mol
solvation free energy, 298 K (in CCCCO): -2.17 kcal/mol
solvation free energy, 298 K (in CCCO): -2.01 kcal/mol
solvation free energy, 298 K (in CCOC(C)=O): -2.55 kcal/mol
solvation free energy, 298 K (in CN1CCCC1=O): -1.8 kcal/mol
solvation free energy, 298 K (in CN(C)C=O): -1.98 kcal/mol
solvation free energy, 298 K (in Cc1ccc(C)cc1): -2.32 kcal/mol
solvation free energy, 298 K (in Cc1cccc(C)c1): -2.33 kcal/mol
solvation free energy, 298 K (in Cc1ccccc1C): -2.31 kcal/mol
solvation free energy, 298 K (in ClC(Cl)(Cl)Cl): -2.44 kcal/mol
solvation free energy, 298 K (in Ic1ccccc1): -1.91 kcal/mol
solvation free energy, 298 K (in N#Cc1ccccc1): -1.97 kcal/mol
solvation free energy, 298 K (in O): 1.17 kcal/mol
solvation free energy, 298 K (in O=CN1CCOCC1): -1.36 kcal/mol
solvation free energy, 298 K (in c1ccccc1): -2.32 kcal/mol

OC1COC(O)C(O)C1O (centres undefined)
solvation free energy, 298 K (in O): -20.5 kcal/mol

COC(=O)c1cc([N+](=O)[O-])cc([N+](=O)[O-])c1
solvation free energy, 298 K (in CN(C)C=O): -13.3 kcal/mol
solvation free energy, 298 K (in O): -8.92 kcal/mol

O=[N+]([O-])c1cccc(CO)c1
solvation free energy, 298 K (in O): -9.19 kcal/mol

C=C(C)C(=O)O
solvation free energy, 298 K (in O): -6.08 kcal/mol

CCN(C)N=O
solvation free energy, 298 K (in CC(C)CC(C)(C)C): -4.43 kcal/mol
solvation free energy, 298 K (in O): -5.73 kcal/mol

O=C(CC(=O)C(F)(F)F)C(F)(F)F
solvation free energy, 298 K (in O): -4.56 kcal/mol

C=CC(=C)CCC=C(C)C
solvation free energy, 298 K (in O): -0.5 kcal/mol

C=C1C=CC(C(C)C)CC1 (centres undefined)
solvation free energy, 298 K (in O): 0.26 kcal/mol

CC(C)(Cl)Cl
solvation free energy, 298 K (in O): -0.43 kcal/mol

C=CC(C)C
solvation free energy, 298 K (in CC(=O)N(C)C): -2.13 kcal/mol
solvation free energy, 298 K (in CC(C)CC(C)(C)C): -2.87 kcal/mol
solvation free energy, 298 K (in CCC(C)=O): -2.71 kcal/mol
solvation free energy, 298 K (in CCCCCCC): -2.96 kcal/mol
solvation free energy, 298 K (in CCCCCCCC): -2.92 kcal/mol
solvation free energy, 298 K (in CCCCO): -2.5 kcal/mol
solvation free energy, 298 K (in CCNC(C)=O): -2.26 kcal/mol
solvation free energy, 298 K (in CCOC(C)=O): -2.74 kcal/mol
solvation free energy, 298 K (in CN1CCCC1=O): -2.03 kcal/mol
solvation free energy, 298 K (in CN(C)C=O): -2.09 kcal/mol
solvation free energy, 298 K (in CNC(C)=O): -2.14 kcal/mol
solvation free energy, 298 K (in CNC=O): -1.75 kcal/mol
solvation free energy, 298 K (in Cc1ccc(C)cc1): -3.31 kcal/mol
solvation free energy, 298 K (in ClCCCl): -2.71 kcal/mol
solvation free energy, 298 K (in O): 1.84 kcal/mol
solvation free energy, 298 K (in O=C1CCCCC1): -2.61 kcal/mol

N#Cc1ccccc1
solvation free energy, 298 K (in CCCCCCC): -5.33 kcal/mol
solvation free energy, 298 K (in CCCCCCCCO): -6 kcal/mol
solvation free energy, 298 K (in O): -4.11 kcal/mol
solvation free energy, 298 K (in [2H]O[2H]): -3.82 kcal/mol

Clc1ccc(C(c2ccc(Cl)cc2)C(Cl)(Cl)Cl)cc1
solvation free energy, 298 K [1]: -14.9 kcal/mol
solvation free energy, 298 K (in CCCCCCCCO): -13.8 kcal/mol
solvation free energy, 298 K (in O): -4.61 kcal/mol

Cc1ccncc1
solvation free energy, 298 K (in CC(C)CC(C)(C)C): -4.95 kcal/mol
solvation free energy, 298 K (in O): -4.94 kcal/mol

CC(=O)OC1C2(C)CCC(C2)C1(C)C (centres undefined)
solvation free energy, 298 K (in O): -2.69 kcal/mol

COC(=O)c1ccc(N(C)C)cc1
solvation free energy, 298 K (in CN(C)C=O): -11.9 kcal/mol
solvation free energy, 298 K (in O): -7.01 kcal/mol

CC1=CCC2C(C)=CCC(C(C)C)C2C1 (centres undefined)
solvation free energy, 298 K (in O): -0.38 kcal/mol

ClC1CCCCC1
solvation free energy, 298 K (in O): -0.93 kcal/mol
